Tests used:
Assay type in all cases: functional
[1] = tested on: OVCAR-5; assay: Growth inhibition of human OVCAR5 cells assessed as cell growth at 3X10'-7 M after 48 hrs by sulforhodamine B assay; conditions: OVCAR-5, 48 h, read-out: Activity
[2] = tested on: OVCAR-4; assay: Growth inhibition of human OVCAR4 cells assessed as cell growth at 3X10'-7 M after 48 hrs by sulforhodamine B assay; conditions: OVCAR-4, 48 h, read-out: Activity
[3] = tested on: SK-MEL-28; assay: Growth inhibition of human SK-MEL-28 cells assessed as cell growth at 3X10'-7 M after 48 hrs by sulforhodamine B assay; conditions: SK-MEL-28, 48 h, read-out: Activity
[4] = tested on: SW-620; assay: Growth inhibition of human SW620 cells assessed as cell growth at 3X10'-7 M after 48 hrs by sulforhodamine B assay; conditions: SW-620, 48 h, read-out: Activity
[5] = tested on: COLO 205; assay: Growth inhibition of human COLO205 cells assessed as cell growth at 3X10'-7 M after 48 hrs by sulforhodamine B assay; conditions: COLO 205, 48 h, read-out: Activity
[6] = tested on: NCI-H322M; assay: Growth inhibition of human NCI-H322M cells assessed as cell growth at 3X10'-7 M after 48 hrs by sulforhodamine B assay; conditions: read-out: Activity
[7] = tested on: MDA-MB-468; assay: Growth inhibition of human MDA-MB-468 cells assessed as cell growth at 3X10'-8 M after 48 hrs by sulforhodamine B assay; conditions: MDA-MB-468, 48 h, read-out: Activity
[8] = tested on: MCF7; assay: Growth inhibition of human MCF7 cells assessed as cell growth at 3X10'-8 M after 48 hrs by sulforhodamine B assay; conditions: MCF7, 48 h, read-out: Activity
[9] = tested on: ACHN; assay: Growth inhibition of human ACHN cells assessed as cell growth at 3X10'-8 M after 48 hrs by sulforhodamine B assay; conditions: read-out: Activity
[10] = tested on: SK-OV-3; assay: Growth inhibition of human SKOV3 cells assessed as cell growth at 3X10'-8 M after 48 hrs by sulforhodamine B assay; conditions: SK-OV-3, 48 h, read-out: Activity
[11] = tested on: BT-549; assay: Growth inhibition of human BT549 cells assessed as cell growth at 3X10'-5 M after 48 hrs by sulforhodamine B assay; conditions: BT-549, 48 h, read-out: Activity
[12] = tested on: MDA-MB-231; assay: Growth inhibition of human MDA-MB-231 cells assessed as cell growth at 3X10'-5 M after 48 hrs by sulforhodamine B assay; conditions: MDA-MB-231, 48 h, read-out: Activity
[13] = tested on: DU-145; assay: Growth inhibition of human DU145 cells assessed as cell growth at 3X10'-5 M after 48 hrs by sulforhodamine B assay; conditions: DU-145, 48 h, read-out: Activity
[14] = tested on: COLO 205; assay: Growth inhibition of human COLO205 cells assessed as cell growth at 3X10'-8 M after 48 hrs by sulforhodamine B assay; conditions: COLO 205, 48 h, read-out: Activity
[15] = tested on: MCF7; assay: Growth inhibition of human MCF7 cells assessed as cell growth at 3X10'-9 M after 48 hrs by sulforhodamine B assay; conditions: MCF7, 48 h, read-out: Activity
[16] = tested on: PC-3; assay: Growth inhibition of human PC3 cells assessed as cell growth at 3X10'-9 M after 48 hrs by sulforhodamine B assay; conditions: PC-3, 48 h, read-out: Activity
[17] = tested on: RXF 393; assay: Growth inhibition of human RXF393 cells assessed as cell growth at 3X10'-9 M after 48 hrs by sulforhodamine B assay; conditions: RXF 393, 48 h, read-out: Activity
[18] = tested on: OVCAR-8; assay: Growth inhibition of human OVCAR8 cells assessed as cell growth at 3X10'-9 M after 48 hrs by sulforhodamine B assay; conditions: OVCAR-8, 48 h, read-out: Activity
[19] = tested on: OVCAR-4; assay: Growth inhibition of human OVCAR4 cells assessed as cell growth at 3X10'-9 M after 48 hrs by sulforhodamine B assay; conditions: OVCAR-4, 48 h, read-out: Activity
[20] = tested on: SF-268; assay: Growth inhibition of human SF268 cells assessed as cell growth at 3X10'-5 M after 48 hrs by sulforhodamine B assay; conditions: SF-268, 48 h, read-out: Activity
[21] = tested on: HCT-116; assay: Growth inhibition of human HCT116 cells assessed as cell growth at 3X10'-5 M after 48 hrs by sulforhodamine B assay; conditions: HCT-116, 48 h, read-out: Activity
[22] = tested on: NCI-H322M; assay: Growth inhibition of human NCI-H322M cells assessed as cell growth at 3X10'-5 M after 48 hrs by sulforhodamine B assay; conditions: read-out: Activity
[23] = tested on: HOP-62; assay: Growth inhibition of human HOP62 cells assessed as cell growth at 3X10'-5 M after 48 hrs by sulforhodamine B assay; conditions: HOP-62, 48 h, read-out: Activity
[24] = tested on: MCF7; assay: Growth inhibition of human MCF7 cells assessed as cell growth at 3X10'-6 M after 48 hrs by sulforhodamine B assay; conditions: MCF7, 48 h, read-out: Activity
[25] = tested on: U-251; assay: Growth inhibition of human U251 cells assessed as cell growth at 3X10'-9 M after 48 hrs by sulforhodamine B assay; conditions: U-251, 48 h, read-out: Activity
[26] = tested on: NCI-H23; assay: Growth inhibition of human NCI-H23 cells assessed as cell growth at 3X10'-9 M after 48 hrs by sulforhodamine B assay; conditions: NCI-H23, 48 h, read-out: Activity
[27] = tested on: NCI-H226; assay: Growth inhibition of human NCI-H226 cells assessed as cell growth at 3X10'-9 M after 48 hrs by sulforhodamine B assay; conditions: NCI-H226, 48 h, read-out: Activity
[28] = tested on: A549; assay: Growth inhibition of human A549/ATCC cells assessed as cell growth at 3X10'-9 M after 48 hrs by sulforhodamine B assay; conditions: A549, 48 h, read-out: Activity
[29] = tested on: RPMI-8226; assay: Growth inhibition of human RPMI8226 cells assessed as cell growth at 3X10'-9 M after 48 hrs by sulforhodamine B assay; conditions: RPMI-8226, 48 h, read-out: Activity
[30] = tested on: RXF 393; assay: Growth inhibition of human RXF393 cells assessed as cell growth at 3X10'-6 M after 48 hrs by sulforhodamine B assay; conditions: RXF 393, 48 h, read-out: Activity
[31] = tested on: ACHN; assay: Growth inhibition of human ACHN cells assessed as cell growth at 3X10'-6 M after 48 hrs by sulforhodamine B assay; conditions: read-out: Activity
[32] = tested on: A498; assay: Growth inhibition of human A498 cells assessed as cell growth at 3X10'-6 M after 48 hrs by sulforhodamine B assay; conditions: A498, 48 h, read-out: Activity
[33] = Growth inhibition of human NCI-ADR-RES cells assessed as cell growth at 3X10'-6 M after 48 hrs by sulforhodamine B assay; conditions: read-out: Activity
[34] = tested on: SK-MEL-28; assay: Growth inhibition of human SK-MEL-28 cells assessed as cell growth at 3X10'-6 M after 48 hrs by sulforhodamine B assay; conditions: SK-MEL-28, 48 h, read-out: Activity
[35] = tested on: SW-620; assay: Growth inhibition of human SW620 cells assessed as cell growth at 3X10'-6 M after 48 hrs by sulforhodamine B assay; conditions: SW-620, 48 h, read-out: Activity
[36] = tested on: SR; assay: Growth inhibition of human SR cells assessed as cell growth at 3X10'-6 M after 48 hrs by sulforhodamine B assay; conditions: read-out: Activity
[37] = tested on: HOP-92; assay: Growth inhibition of human HOP92 cells assessed as cell growth at 3X10'-6 M after 48 hrs by sulforhodamine B assay; conditions: HOP-92, 48 h, read-out: Activity

SMILES	growth at 0.3 µM [1]	growth at 0.3 µM [2]	growth at 0.3 µM [3]	growth at 0.3 µM [4]	growth at 0.3 µM [5]	growth at 0.3 µM [6]	growth at 0.03 µM [7]	growth at 0.03 µM [8]	growth at 0.03 µM [9]	growth at 0.03 µM [10]	growth at 30 µM [11]	growth at 30 µM [12]	growth at 30 µM [13]	growth at 0.03 µM [14]	growth at 0.003 µM [15]	growth at 0.003 µM [16]	growth at 0.003 µM [17]	growth at 0.003 µM [18]	growth at 0.003 µM [19]	growth at 30 µM [20]	other results
COc1cc(-c2nn(-c3cccc(NC(=O)c4ccc(Cl)c(C(F)(F)F)c4)c3)cc2-c2ccncc2)ccc1Cl	90%	89%	95%	91%	99%	92%	91%	93%	100%	100%	29%	3%	10%	97%	93%	94%	99%	100%	98%	23%	growth at 30 µM [21]: 18%; growth at 30 µM [22]: 34%; growth at 30 µM [23]: 35%; growth at 3 µM [24]: 42%; growth at 0.003 µM [25]: 96%; growth at 0.003 µM [26]: 93%; growth at 0.003 µM [27]: 92%; growth at 0.003 µM [28]: 96%; growth at 0.003 µM [29]: 97%; growth at 3 µM [30]: 36%; growth at 3 µM [31]: 47%; growth at 3 µM [32]: 47%; growth at 3 µM [33]: 22%; growth at 3 µM [34]: 49%; growth at 3 µM [35]: 55%; growth at 3 µM [36]: 5%
O=C(Nc1cccc(-n2cc(-c3ccncc3)c(-c3ccc(Cl)c(O)c3)n2)c1)Nc1ccc(Cl)c(C(F)(F)F)c1	88%	94%	95%	105%	101%	95%	85%	90%	98%	102%	-19%	-60%	-58%	100%	93%	93%	101%	100%	99%	-20%	growth at 30 µM [21]: -43%; growth at 30 µM [22]: -58%; growth at 30 µM [23]: -17%; growth at 3 µM [24]: 2%; growth at 0.003 µM [25]: 98%; growth at 0.003 µM [26]: 97%; growth at 0.003 µM [27]: 88%; growth at 0.003 µM [28]: 98%; growth at 0.003 µM [29]: 96%; growth at 3 µM [30]: -28%; growth at 3 µM [31]: 8%; growth at 3 µM [32]: 24%; growth at 3 µM [33]: -7%; growth at 3 µM [34]: 1%; growth at 3 µM [35]: 5%; growth at 3 µM [37]: -30%; growth at 3 µM [36]: -10%
O=C(Nc1cccc(-n2cc(-c3ccncc3)c(-c3ccc(Cl)c(O)c3)n2)c1)Nc1ccc(Cl)c(Cl)c1	104%	105%	97%	101%	104%	113%	90%	93%	103%	99%	-12%	-22%	9%	97%	97%	103%	96%	103%	103%	-21%	growth at 30 µM [21]: -39%; growth at 30 µM [22]: 11%; growth at 30 µM [23]: -13%; growth at 3 µM [24]: 8%; growth at 0.003 µM [25]: 98%; growth at 0.003 µM [26]: 90%; growth at 0.003 µM [27]: 98%; growth at 0.003 µM [28]: 96%; growth at 0.003 µM [29]: 103%; growth at 3 µM [30]: 16%; growth at 3 µM [31]: 5%; growth at 3 µM [32]: -1%; growth at 3 µM [33]: 46%; growth at 3 µM [34]: 25%; growth at 3 µM [35]: 23%; growth at 3 µM [37]: -26%; growth at 3 µM [36]: 11%
O=C(Nc1cccc(-n2cc(-c3ccncc3)c(-c3ccc(Cl)c(O)c3)n2)c1)Nc1cccc(C(F)(F)F)c1	105%	108%	101%	101%	109%	98%	89%	96%	101%	96%	-18%	-5%	9%	99%	91%	95%	96%	99%	101%	-17%	growth at 30 µM [21]: -34%; growth at 30 µM [22]: 19%; growth at 30 µM [23]: 9%; growth at 3 µM [24]: 26%; growth at 0.003 µM [25]: 100%; growth at 0.003 µM [26]: 94%; growth at 0.003 µM [27]: 98%; growth at 0.003 µM [28]: 97%; growth at 0.003 µM [29]: 99%; growth at 3 µM [30]: 49%; growth at 3 µM [31]: 21%; growth at 3 µM [32]: 44%; growth at 3 µM [33]: 39%; growth at 3 µM [34]: 55%; growth at 3 µM [35]: 53%; growth at 3 µM [37]: -13%; growth at 3 µM [36]: 33%
COc1cc(-c2nn(-c3cccc(NC(=O)Nc4ccc(Cl)c(C(F)(F)F)c4)c3)cc2-c2ccncc2)ccc1Cl	89%	96%	95%	100%	101%	91%	90%	92%	98%	104%	-41%	-76%	2%	103%	94%	95%	98%	105%	96%	-31%	growth at 30 µM [21]: -63%; growth at 30 µM [22]: -17%; growth at 30 µM [23]: -51%; growth at 3 µM [24]: 5%; growth at 0.003 µM [25]: 97%; growth at 0.003 µM [26]: 100%; growth at 0.003 µM [27]: 99%; growth at 0.003 µM [28]: 95%; growth at 0.003 µM [29]: 102%; growth at 3 µM [30]: 20%; growth at 3 µM [31]: 8%; growth at 3 µM [32]: 12%; growth at 3 µM [33]: 3%; growth at 3 µM [34]: 16%; growth at 3 µM [35]: 17%; growth at 3 µM [37]: -36%; growth at 3 µM [36]: -13%

Reference: ChEMBL document CHEMBL2440076, “New triarylpyrazoles as broad-spectrum anticancer agents: design, synthesis, and biological evaluation” (Eur J Med Chem, 2013)
